Results as given in patent US6346514B1, “Pharmaceutical lysine-containing polypeptide compositions and methods of use thereof” (priority 1991, dated 2002).

Test system: Vibrio anguillarum (V-775)
Assay: Vaccine augmentation in Rainbow trout challenged with Vibrio anguillarum
Type: in vivo, Rainbow trout (Oncorhynchus mykiss)
Procedure: In the present investigation, fish were obtained and inoculated at approximately 12 weeks of age. Immunologic studies were conducted under a variety of conditions in which fish were provided with vaccination to observe vaccine augmentation, and under conditions in which no vaccine was provided prior to inoculum. The effects of exposure time, HM897 concentration, and vaccine on mortalities relative to control studies in which no HM897 was administered provided data for analysis of the immunologic effect of HM897.
The study was conducted using Rainbow trout (Oncorhynchus mykiss) to compare the effects of a standard fish vaccine to the protection provided by varying dosages of HM897. The fish were challenged with Vibrio anguillarum (V-775), a bacteria that causes fatal vibriosis, typically 3-5 days following pathogen exposure.
Rainbow Trout (Oncorhynchus mykiss) weighing approximately 5 grams were used as test organisms. The fish were obtained from Cran-Mar Trout Farm. Upon arrival at BRL's facility, the fish were quarantined for a minimum of seven days, and observed to be disease free. During this period, the fish were held at a stable temperature. There was consistent water quality in an aerated flow-through system with a flow rate of approximately 30 liters per hour. During the holding period the fish were observed daily for signs of disease, stress, injury, hemorrhaging, and external parasite. The fish were not fed 48 hours prior to testing.
The Rainbow trout used in this study weighed an average of 5 grams. The fish were divided into 21 groups with 50 fish per group. Each group of 50 fish was maintained in two 10-gallon tanks (25 fish/tank).
The level of bacterial dilution to achieve a LD75 (the level designed to kill 75% of the non-vaccinated fish) was a dilution of 10^−4. to 10^−5. The challenge bacteria were grown for 48 hours at 25° C in trypticase soy broth. The 10^−4 dilution was made from this broth in 0.9% saline. All fish excepting the control group that received no bacterial challenge were inoculated 7 days after exposure to HM897.
Rainbow trout hatchling were exposed to the concentration of HM897 as described below. Some of the fish had been vaccinated while others had received no vaccination. In each tank, fifty vaccinated or unvaccinated fish were exposed for a period of 5 minutes to HM897, and then removed and placed in an assigned tank according to the group number.
The positive control group (III) received a vaccine made from Vibrio anguillarum (V-775). This was made through a fermentation and extraction process in the BRL laboratory facility and is equivalent to the aquaculture industry standard vibrio vaccine.
All groups scheduled to be challenged with the Vibrio anguillarum bacterium were challenged at the LD75 dilution on day seven of the experiment by i.p. injection of 0.1 mL of 10^−4 bacterial dilution. The fish were observed daily for mortalities.

Thr-Ala-Glu-Glu-Lys (TAEEK) [HM897]
statistically significant effect: augmentation of vaccinations (vaccinated fish exposed to HM897)
10: Cumulative Mortalities (Day 18, Group IVc: vaccinated, HM897 50 μg/38 liters) | Cumulative Mortalities (Day 19, Group IVc: vaccinated, HM897 50 μg/38 liters) | Cumulative Mortalities (Day 20, Group IVc: vaccinated, HM897 50 μg/38 liters) | Cumulative Mortalities (Day 21, Group IVc: vaccinated, HM897 50 μg/38 liters) | Total Mortalities (Table XI-3, Group IVc: vaccinated, HM897 50 μg/38 liters) | Total Mortalities (Table XI-4, Group IVc: vaccinated, HM897 50 μg/38 liters)
17: Cumulative Mortalities (Day 17, Group IVd: vaccinated, HM897 100 μg/38 liters) | Cumulative Mortalities (Day 18, Group IVd: vaccinated, HM897 100 μg/38 liters) | Cumulative Mortalities (Day 19, Group IVd: vaccinated, HM897 100 μg/38 liters) | Cumulative Mortalities (Day 20, Group IVd: vaccinated, HM897 100 μg/38 liters) | Cumulative Mortalities (Day 21, Group IVd: vaccinated, HM897 100 μg/38 liters) | Total Mortalities (Table XI-3, Group IVd: vaccinated, HM897 100 μg/38 liters) | Total Mortalities (Table XI-4, Group IVd: vaccinated, HM897 100 μg/38 liters)
13: Cumulative Mortalities (Day 18, Group IVa: vaccinated, HM897 2.5 μg/38 liters) | Cumulative Mortalities (Day 19, Group IVa: vaccinated, HM897 2.5 μg/38 liters) | Cumulative Mortalities (Day 20, Group IVa: vaccinated, HM897 2.5 μg/38 liters) | Cumulative Mortalities (Day 21, Group IVa: vaccinated, HM897 2.5 μg/38 liters) | Total Mortalities (Table XI-3, Group IVa: vaccinated, HM897 2.5 μg/38 liters) | Total Mortalities (Table XI-4, Group IVa: vaccinated, HM897 2.5 μg/38 liters)
66%: Percent Mortalities (Group Va: not vaccinated, HM897 10 μg/38 liters) | Percent Mortalities (Group Vb: not vaccinated, HM897 25 μg/38 liters)
26%: Percent Mortalities (Group IVa: vaccinated, HM897 2.5 μg/38 liters)
no protection: protection against the bacterial infection (HM897 exposure without vaccine (Groups Va to Ve))
14%: Percent Mortalities (Group IVb: vaccinated, HM897 10 μg/38 liters)
64%: Percent Mortalities (Group Vd: not vaccinated, HM897 150 μg/38 liters)
20%: Percent Mortalities (Group IVc: vaccinated, HM897 50 μg/38 liters)
34: Cumulative Mortalities (Day 17, Group Vc: not vaccinated, HM897 75 μg/38 liters) | Cumulative Mortalities (Day 18, Group Vc: not vaccinated, HM897 75 μg/38 liters) | Cumulative Mortalities (Day 19, Group Vc: not vaccinated, HM897 75 μg/38 liters) | Cumulative Mortalities (Day 20, Group Vc: not vaccinated, HM897 75 μg/38 liters) | Cumulative Mortalities (Day 21, Group Vc: not vaccinated, HM897 75 μg/38 liters) | Total Mortalities (Table XI-3, Group Vc: not vaccinated, HM897 75 μg/38 liters) | Total Mortalities (Table XI-3, Group Ve: not vaccinated, HM897 250 μg/38 liters) | Total Mortalities (Table XI-4, Group Vc: not vaccinated, HM897 75 μg/38 liters) | Total Mortalities (Table XI-4, Group Ve: not vaccinated, HM897 250 μg/38 liters)
34%: Percent Mortalities (Group IVd: vaccinated, HM897 100 μg/38 liters)
32: Cumulative Mortalities (Day 18, Group Vd: not vaccinated, HM897 150 μg/38 liters) | Cumulative Mortalities (Day 19, Group Vd: not vaccinated, HM897 150 μg/38 liters) | Cumulative Mortalities (Day 20, Group Vd: not vaccinated, HM897 150 μg/38 liters) | Cumulative Mortalities (Day 21, Group Vd: not vaccinated, HM897 150 μg/38 liters) | Total Mortalities (Table XI-3, Group Vd: not vaccinated, HM897 150 μg/38 liters) | Total Mortalities (Table XI-4, Group Vd: not vaccinated, HM897 150 μg/38 liters)
33: Cumulative Mortalities (Day 17, Group Va: not vaccinated, HM897 10 μg/38 liters) | Cumulative Mortalities (Day 17, Group Vb: not vaccinated, HM897 25 μg/38 liters) | Cumulative Mortalities (Day 18, Group Va: not vaccinated, HM897 10 μg/38 liters) | Cumulative Mortalities (Day 18, Group Vb: not vaccinated, HM897 25 μg/38 liters) | Cumulative Mortalities (Day 19, Group Va: not vaccinated, HM897 10 μg/38 liters) | Cumulative Mortalities (Day 19, Group Vb: not vaccinated, HM897 25 μg/38 liters) | Cumulative Mortalities (Day 20, Group Va: not vaccinated, HM897 10 μg/38 liters) | Cumulative Mortalities (Day 20, Group Vb: not vaccinated, HM897 25 μg/38 liters) | Cumulative Mortalities (Day 21, Group Va: not vaccinated, HM897 10 μg/38 liters) | Cumulative Mortalities (Day 21, Group Vb: not vaccinated, HM897 25 μg/38 liters) | Total Mortalities (Table XI-3, Group Va: not vaccinated, HM897 10 μg/38 liters) | Total Mortalities (Table XI-3, Group Vb: not vaccinated, HM897 25 μg/38 liters) | Total Mortalities (Table XI-4, Group Va: not vaccinated, HM897 10 μg/38 liters) | Total Mortalities (Table XI-4, Group Vb: not vaccinated, HM897 25 μg/38 liters)
68%: Percent Mortalities (Group Vc: not vaccinated, HM897 75 μg/38 liters) | Percent Mortalities (Group Ve: not vaccinated, HM897 250 μg/38 liters)
7: Cumulative Mortalities (Day 18, Group IVb: vaccinated, HM897 10 μg/38 liters) | Cumulative Mortalities (Day 19, Group IVb: vaccinated, HM897 10 μg/38 liters) | Cumulative Mortalities (Day 20, Group IVb: vaccinated, HM897 10 μg/38 liters) | Cumulative Mortalities (Day 21, Group IVb: vaccinated, HM897 10 μg/38 liters) | Total Mortalities (Table XI-3, Group IVb: vaccinated, HM897 10 μg/38 liters) | Total Mortalities (Table XI-4, Group IVb: vaccinated, HM897 10 μg/38 liters)
